Laboratory results published in article PMC8073005, “Antifungal Activity and DNA Topoisomerase Inhibition of Hydrolysable Tannins from Punica granatum L” (International Journal of Molecular Sciences, 2021).
Values after ≈ are worked out from the molar mass of the structure shown. Values joined by “and” are separate entries in the source; they are usually repeats but may differ in a detail not shown here. Equal entries are not always repeated. Where two headings read alike, the source gives them in different places.

Key:
[1] = system: Candida albicans ATCC 10321; experiment: MIC, broth microdilution (human pathogens); type: cell-based; conditions: ATCC10321; Candida albicans ATCC 10321; SDB, 30 °C, 48 h; read-out: Minimum inhibitory concentration (MIC)
Candida albicans SC 5314 = experiment: MIC, broth microdilution (human pathogens); type: cell-based; conditions: SC5314; Candida albicans SC 5314; SDB, 30 °C, 48 h; read-out: Minimum inhibitory concentration (MIC)
Candida albicans 1 = experiment: MIC, broth microdilution (human pathogens); type: cell-based; conditions: Candida albicans 1; SDB, 30 °C, 48 h; read-out: Minimum inhibitory concentration (MIC)
Candida albicans 2 = experiment: MIC, broth microdilution (human pathogens); type: cell-based; conditions: Candida albicans 2; SDB, 30 °C, 48 h; read-out: Minimum inhibitory concentration (MIC)
Candida albicans H = experiment: MIC, broth microdilution (human pathogens); type: cell-based; conditions: Candida albicans H; SDB, 30 °C, 48 h; read-out: Minimum inhibitory concentration (MIC)
Candida albicans 40 = experiment: MIC, broth microdilution (human pathogens); type: cell-based; conditions: Candida albicans 40; SDB, 30 °C, 48 h; read-out: Minimum inhibitory concentration (MIC)
Candida albicans 41 = experiment: MIC, broth microdilution (human pathogens); type: cell-based; conditions: Candida albicans 41; SDB, 30 °C, 48 h; read-out: Minimum inhibitory concentration (MIC)
Candida albicans 44 = experiment: MIC, broth microdilution (human pathogens); type: cell-based; conditions: Candida albicans 44; SDB, 30 °C, 48 h; read-out: Minimum inhibitory concentration (MIC)
Candida parapsilosis = experiment: MIC, broth microdilution (human pathogens); type: cell-based; conditions: Lodderomyces parapsilosis; Candida parapsilosis; SDB, 30 °C, 48 h; read-out: Minimum inhibitory concentration (MIC)
Candida parapsilosis 7 = experiment: MIC, broth microdilution (human pathogens); type: cell-based; conditions: Lodderomyces parapsilosis; Candida parapsilosis 7; SDB, 30 °C, 48 h; read-out: Minimum inhibitory concentration (MIC)
Candida zeylanoides 33 = experiment: MIC, broth microdilution (human pathogens); type: cell-based; conditions: Dujonia zeylanoides; Candida zeylanoides 33; SDB, 30 °C, 48 h; read-out: Minimum inhibitory concentration (MIC)
[2] = system: Saccharomyces cerevisiae 42; experiment: MIC, broth microdilution (human pathogens); type: cell-based; conditions: Saccharomyces cerevisiae 42; SDB, 30 °C, 48 h; read-out: Minimum inhibitory concentration (MIC)
[3] = system: Aspergillus brasiliensis ATCC 16404; experiment: MIC, broth microdilution (human pathogens); type: cell-based; conditions: ATCC16404; Aspergillus brasiliensis ATCC 16404; SDB, 30 °C, 48 h; read-out: Minimum inhibitory concentration (MIC)
Aspergillus candidus 3 = experiment: MIC, broth microdilution (human pathogens); type: cell-based; conditions: Aspergillus candidus 3; SDB, 30 °C, 48 h; read-out: Minimum inhibitory concentration (MIC)
Aspergillus candidus 25 = experiment: MIC, broth microdilution (human pathogens); type: cell-based; conditions: Aspergillus candidus 25; SDB, 30 °C, 48 h; read-out: Minimum inhibitory concentration (MIC)
[4] = system: Cryptococcus neoformans B 3501; experiment: MIC, broth microdilution (human pathogens); type: cell-based; conditions: B3501; Cryptococcus neoformans B 3501; SDB, 30 °C, 48 h; read-out: Minimum inhibitory concentration (MIC)
[5] = system: Cryptococcus neoformans ATCC 11240; experiment: MIC, broth microdilution (human pathogens); type: cell-based; conditions: ATCC11240; Cryptococcus neoformans ATCC 11240; SDB, 30 °C, 48 h; read-out: Minimum inhibitory concentration (MIC)
Cryptococcus 67 = experiment: MIC, broth microdilution (human pathogens); type: cell-based; conditions: Cryptococcus 67; SDB, 30 °C, 48 h; read-out: Minimum inhibitory concentration (MIC)
[6] = system: Cryptococcus var. grubii H99 serotype A; experiment: MIC, broth microdilution (human pathogens); type: cell-based; conditions: Cryptococcus var. grubii H99 serotype A; SDB, 30 °C, 48 h; read-out: Minimum inhibitory concentration (MIC)
Candida strains = experiment: Agar Disk Diffusion Assay, Candida strains; type: cell-based; conditions: for share of Candida strains with inhibition zone from 21 to 30 mm: 25 μg; for zone of inhibition at 25 µg/disc: positive controls, for the stated share of Candida strains
[7] = system: Alternaria alternata AL19; experiment: MIC, micro-spectrophotometric growth assay (phytopathogens); type: cell-based; conditions: Alternaria alternata AL19; PDB, 24 °C, dark; imazalil at label dose; read-out: Minimum inhibitory concentration (MIC)
Botrytis cinerea B2 = experiment: as above; type: cell-based; conditions: Botrytis cinerea B2; PDB, 24 °C, dark; imazalil at label dose; read-out: Minimum inhibitory concentration (MIC)
[8] = system: Colletotrichum acutatum s.s. M146-2; experiment: as above; type: cell-based, Colletotrichum acutatum sensu stricto; conditions: Colletotrichum acutatum s.s. M146-2, PDB, 24 °C, dark, imazalil at label dose, read-out: Minimum inhibitory concentration (MIC)
Coniella granati M0_C2 = experiment: as above; type: cell-based; conditions: Coniella granati M0_C2; PDB, 24 °C, dark; imazalil at label dose; read-out: Minimum inhibitory concentration (MIC)
[9] = system: other genera tested (other fungi strains); experiment: Agar Disk Diffusion Assay, other genera; type: cell-based; conditions: 100 µg
Protocol: The antifungal activity of pomegranate compounds was evaluated against 19 clinically isolated fungal strains, including nine belonging to Candida albicans species, two belonging to Aspergillus genus, one belonging to Cryptococcus genus, and one Saccharomyces cerevisiae. The C. albicans strains were isolated on CHROMID agar, Aspergillus and Cryptococcus genus were isolated on SDA-CAF and one Saccharomyces cerevisiae on SDA. All the isolates were confirmed by matrix-assisted laser desorption ionization (MALDI) time-of-flight mass spectrometry (TOF/MS). Strains from the American Type Culture Collection (ATCC) were included. All strains were maintained in SDB with 20% (w/v) glycerol at −80 °C until use and sub-cultured in SDA before each test.
The preliminary determination of the antifungal activity of the target compounds (punicalagin, punicalin, ellagic acid, and gallic acid) from pomegranate was carried out by means of the agar disk diffusion assay, according to the standard procedure of the Clinical and Laboratory Standards Institute, with slight modifications. Plates containing SDA were uniformly spread with 100 μL of 10^3 conidia/mL of each strain suspension. […] Disks containing fluconazole (25 μg), amphotericin B (25 μg) and DMSO (20 μL) were used as the positive and the negative control, respectively. The antifungal activity of pomegranate compounds was evaluated by measuring the diameter of the clear inhibition zone formed right around the disks after 48 h incubation at 30 ± 1 °C. The experiment was carried out in triplicate.

[10] = molecular target: T1, topoisomerase I from Candida albicans (Candida albicans, UniProt Q00313); experiment: Topoisomerase I supercoiled DNA relaxation inhibition; type: biochemical
T1 sequence (Q00313 1-778): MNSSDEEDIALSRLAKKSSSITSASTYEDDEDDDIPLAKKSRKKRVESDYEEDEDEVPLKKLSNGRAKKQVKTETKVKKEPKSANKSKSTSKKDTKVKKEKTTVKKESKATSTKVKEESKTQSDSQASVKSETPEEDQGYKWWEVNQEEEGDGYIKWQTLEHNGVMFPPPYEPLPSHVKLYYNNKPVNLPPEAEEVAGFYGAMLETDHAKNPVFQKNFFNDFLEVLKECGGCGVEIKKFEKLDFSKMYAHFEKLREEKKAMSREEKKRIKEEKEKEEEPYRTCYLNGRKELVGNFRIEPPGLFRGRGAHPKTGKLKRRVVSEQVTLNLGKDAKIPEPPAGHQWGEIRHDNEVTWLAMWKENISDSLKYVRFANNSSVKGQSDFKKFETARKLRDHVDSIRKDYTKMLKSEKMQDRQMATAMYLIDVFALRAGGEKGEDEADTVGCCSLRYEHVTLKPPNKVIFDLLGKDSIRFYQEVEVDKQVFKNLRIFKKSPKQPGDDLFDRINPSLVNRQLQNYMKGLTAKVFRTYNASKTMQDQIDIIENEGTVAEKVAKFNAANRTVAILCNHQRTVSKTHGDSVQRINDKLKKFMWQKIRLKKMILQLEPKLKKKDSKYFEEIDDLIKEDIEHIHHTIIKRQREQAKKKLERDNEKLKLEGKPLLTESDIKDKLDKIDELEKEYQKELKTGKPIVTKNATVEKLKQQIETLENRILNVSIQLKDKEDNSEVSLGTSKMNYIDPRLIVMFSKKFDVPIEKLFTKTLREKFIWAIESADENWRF

Structure (SMILES) | MIC [1] [µM] | MIC (Candida albicans SC 5314) [µM] | MIC (Candida albicans 1) [µM] | MIC (Candida albicans 2) [µM] | MIC (Candida albicans H) [µM] | MIC (Candida albicans 40) [µM] | MIC (Candida albicans 41) [µM] | MIC (Candida albicans 44) [µM] | MIC (Candida parapsilosis) [µM] | MIC (Candida parapsilosis 7) [µM] | MIC (Candida zeylanoides 33) [µM] | MIC [2] [µM] | MIC [3] [µM] | MIC (Aspergillus candidus 3) [µM] | MIC (Aspergillus candidus 25) [µM] | MIC [4] [µM] | MIC [5] [µM] | MIC (Cryptococcus 67) [µM] | MIC [6] [µM] | share of Candida strains with inhibition zone from 21 to 30 mm (Candida strains) [%] | also measured
C[C@@H]1[C@H](O)[C@@H](C)/C=C/C=C/C=C/C=C/C=C/C=C/C=C/[C@H](O[C@@H]2O[C@H](C)[C@@H](O)[C@H](N)[C@@H]2O)C[C@@H]2O[C@](O)(C[C@@H](O)C[C@@H](O)[C@H](O)CC[C@@H](O)C[C@@H](O)CC(=O)O[C@H]1C)C[C@H](O)[C@H]2C(=O)O [Amphotericin B, amphotericin B, reference compound] | 0.1 (≈ 0.0924 µg/mL) | 0.1 (≈ 0.0924 µg/mL) | 2.2 (≈ 2.03 µg/mL) | 4.3 (≈ 3.97 µg/mL) | 4.3 (≈ 3.97 µg/mL) | 0.3 (≈ 0.277 µg/mL) | 0.3 (≈ 0.277 µg/mL) | 2.2 (≈ 2.03 µg/mL) | 0.1 (≈ 0.0924 µg/mL) | 0.3 (≈ 0.277 µg/mL) | 0.1 (≈ 0.0924 µg/mL) | 1.1 (≈ 1.02 µg/mL) | 0.1 (≈ 0.0924 µg/mL) | 0.3 (≈ 0.277 µg/mL) | 0.3 (≈ 0.277 µg/mL) | 0.1 (≈ 0.0924 µg/mL) | 0.1 (≈ 0.0924 µg/mL) | 0.1 (≈ 0.0924 µg/mL) | 0.1 (≈ 0.0924 µg/mL) | 46 | zone of inhibition at 25 µg/disc (Candida strains): 21 to 30 mm
OC(Cn1cncn1)(Cn1cncn1)c1ccc(F)cc1F [Fluconazole, fluconazole, reference compound] | 40.8 (≈ 12.5 µg/mL) | 9.8 (≈ 3 µg/mL) | 81.6 (≈ 25 µg/mL) | 163 (≈ 50 µg/mL) | 81.6 (≈ 25 µg/mL) | 163 (≈ 50 µg/mL) | 81.6 (≈ 25 µg/mL) | 81.6 (≈ 25 µg/mL) | 9.8 (≈ 3 µg/mL) | 19.6 (≈ 6 µg/mL) | 19.6 (≈ 6 µg/mL) | 4.9 (≈ 1.5 µg/mL) | 4.9 (≈ 1.5 µg/mL) | 9.8 (≈ 3 µg/mL) | 9.8 (≈ 3 µg/mL) | 4.9 (≈ 1.5 µg/mL) | 4.9 (≈ 1.5 µg/mL) | 9.8 (≈ 3 µg/mL) | 4.9 (≈ 1.5 µg/mL) | 73 | zone of inhibition at 25 µg/disc (Candida strains): 21 to 30 mm
O=C(O)c1cc(O)c(O)c(O)c1 [Gallic Acid, gallic acid] | 294 (≈ 50 µg/mL) | 294 (≈ 50 µg/mL) | 294 (≈ 50 µg/mL) | 294 (≈ 50 µg/mL) | 588 (≈ 100 µg/mL) | 588 (≈ 100 µg/mL) | 294 (≈ 50 µg/mL) | 294 (≈ 50 µg/mL) | 294 (≈ 50 µg/mL) | 588 (≈ 100 µg/mL) | 588 (≈ 100 µg/mL) | 588 (≈ 100 µg/mL) | 8.8 (≈ 1.5 µg/mL) | 17.6 (≈ 2.99 µg/mL) | 17.6 (≈ 2.99 µg/mL) | 4.4 (≈ 0.749 µg/mL) | 4.4 (≈ 0.749 µg/mL) | 8.8 (≈ 1.5 µg/mL) | 4.4 (≈ 0.749 µg/mL) | – | MIC [7]: 587.8 µM and 588 µM; MIC (Botrytis cinerea B2): 587.8 µM and 588 µM; MIC [8]: 587.8 µM (≈ 100 µg/mL); MIC ([8]; S.S.M1462): 588 µM (≈ 100 µg/mL); MIC (Coniella granati M0_C2): 587.8 µM and 588 µM; share of Candida strains with inhibition zone from 11 to 20 mm (Candida strains; 100 µg): 73%; share of other fungi strains with inhibition zone from 11 to 20 mm [9]: 25%
CC[C@@]1(O)C(=O)OCc2c1cc1n(c2=O)Cc2cc3ccccc3nc2-1 [Camptothecin, camptothecin, reference compound] | – | – | – | – | – | – | – | – | – | – | – | – | – | – | – | – | – | – | – | – | IC50 [10]: 17.8 ± 0.7 µM
C=CCOC(Cn1ccnc1)c1ccc(Cl)cc1Cl (stereo not shown) [Imazalil, imazalil, reference compound] | – | – | – | – | – | – | – | – | – | – | – | – | – | – | – | – | – | – | – | – | MIC [7]: 0.3 µM (≈ 0.0892 µg/mL); MIC (Botrytis cinerea B2): 0.3 µM (≈ 0.0892 µg/mL); MIC ([8]; S.S.M1462): 0.3 µM (≈ 0.0892 µg/mL); MIC (Coniella granati M0_C2): 0.3 µM (≈ 0.0892 µg/mL)
